Like-named read-outs stand apart in the source and are kept apart here.
Tests used:
IMP-1 = IMP-1 (Serratia marcescens, UniProt P52699); test: biochemical; type: biochemical; settings: CCF2-FA substrate, 2 pM enzyme, 2 hours at 25° C.
Summary of the method: (§1)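 Fluorescence assay, CCF2-FA substrate (cephalosporin core linking 7-hydroxycoumarin to fluorescein); inhibitor + MBL + substrate, 2 h, 25° C. IC50 by 4-parameter fit, semi-log plot.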

NDM-1 = NDM-1 (Klebsiella pneumoniae, UniProt C7C422); test: biochemical; type: biochemical; settings: CCF2-FA substrate, 1 pM enzyme, 2 hours at 25° C.
Sequence of NDM-1 (C7C422 whole entry, looked up, species assumed): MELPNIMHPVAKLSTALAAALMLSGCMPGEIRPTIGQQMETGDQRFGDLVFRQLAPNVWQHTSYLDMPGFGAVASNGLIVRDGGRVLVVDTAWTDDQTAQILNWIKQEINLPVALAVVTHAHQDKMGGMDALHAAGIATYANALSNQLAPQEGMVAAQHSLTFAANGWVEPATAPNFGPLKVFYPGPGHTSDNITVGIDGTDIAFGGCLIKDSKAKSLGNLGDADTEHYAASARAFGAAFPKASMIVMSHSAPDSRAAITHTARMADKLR
Summary of the method: as §1

VIM-1 = VIM-1 (Pseudomonas aeruginosa (strain ATCC 15692 / DSM 22644 / CIP 104116 / JCM 14847 / LMG 12228 / 1C / PRS 101 / PAO1), UniProt A0A0F7KYQ8); test: biochemical; settings: CCF2-FA substrate, 30 pM enzyme, 2 hours at 25° C.
Summary of the method: as §1

[1] = tested on: Escherichia coli expressing NDM-1 (CLB30005, CLB30016); type: cell-based; settings: with imipenem 1 μg/ml; 95% inhibition of bacterial growth
Summary of the method: (§2)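 Colonies grown overnight on blood agar at 35° C were suspended in saline, diluted 1:100 into 1.1×CAMHB and dispensed. Imipenem was added to 1 μg/ml, then test compound. After 22 hours to 24 hours at 35° C, absorbance was recorded.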

[2] = tested on: Klebsiella pneumoniae expressing VIM-1 (IHMA599644); type: cell-based; settings: with imipenem 1 μg/ml; 95% inhibition of bacterial growth
Summary of the method: as §2

[3] = tested on: Serratia marcescens expressing IMP-1 (CL5741); type: cell-based; settings: with imipenem 1 μg/ml; 95% inhibition of bacterial growth
Summary of the method: as §2

[4] = tested on: Pseudomonas aeruginosa efflux+ (MB9798), IMP-1; type: cell-based; settings: concentration restoring susceptibility to imipenem at 2 μg/mL in the presence of a class A, C, D serine β-lactamase inhibitor closely related to relebactam
Summary of the method: (§3)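 Steps: add fixed imipenem and/or ceftazidime (usually CLSI breakpoint) and fixed AmpC-directed class A/C inhibitor to microbroth MIC wells; titrate MBL inhibitor; record concentration regaining susceptibility for each PAO1-derived strain; divide efflux+ by efflux− value.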

[5] = tested on: Pseudomonas aeruginosa efflux− (MB9799), IMP-1; type: cell-based; settings: concentration restoring susceptibility to imipenem at 2 μg/mL in the presence of a class A, C, D serine β-lactamase inhibitor closely related to relebactam
Summary of the method: as §3

[6] = tested on: Pseudomonas aeruginosa MB9798 vs MB9799; settings: ratio MITC95 PA_9798/MITC95 PA_9799
Summary of the method: as §3

[7] = fluorescence assay, read-out: IMP-1 IC50
[8] = fluorescence assay, read-out: NDM-1 IC50
[9] = fluorescence assay, read-out: VIM-1 IC50

Sequence of IMP-1 (P52699 whole entry, looked up, species assumed): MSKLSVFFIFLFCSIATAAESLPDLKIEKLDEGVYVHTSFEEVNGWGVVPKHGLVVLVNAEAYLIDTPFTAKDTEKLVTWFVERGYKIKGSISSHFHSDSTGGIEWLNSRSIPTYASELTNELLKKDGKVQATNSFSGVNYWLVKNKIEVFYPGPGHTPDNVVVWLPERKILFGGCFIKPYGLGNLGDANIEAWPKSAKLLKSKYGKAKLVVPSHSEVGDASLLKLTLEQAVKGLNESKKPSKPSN

Nc1nc2c(-c3ccc(S(=O)(=O)N[C@H]4CCNC4)c(S(N)(=O)=O)c3-c3nnn[nH]3)cccc2s1 [Example 60, 4-(2-amino-1,3-benzothiazol-4-yl)-N1-[(3S)-pyrrolidin-3-yl]-3-(1H-tetrazol-5-yl)benzene-1,2-disulfonamide]
IC50 (IMP-1; [7]): 0.679 nM
IC50 (NDM-1; [8]): 0.0765 nM
IC50 (VIM-1; [9]): 0.236 nM
Escherichia coli expressing NDM-1 (CLB30016) MITC95 [1]: 3.125 µM
Klebsiella pneumoniae expressing VIM-1 (IHMA599644) MITC95 [2]: 3.125 µM
Serratia marcescens expressing IMP-1 (CL5741) MITC95 [3]: 1.563 µM
P. aeruginosa expressing IMP-1, efflux + (MB9798) MITC95 [4]: 0.7813 µM
P. aeruginosa expressing IMP-1, efflux − (MB9799) MITC95 [5]: 1.563 µM
Efflux ratio [6]: 0.50

Nc1nc2c(-c3ccc(S(=O)(=O)N4CC[C@H](N)C4)c(S(N)(=O)=O)c3-c3nnn[nH]3)cccc2s1 [Example 61, 3-(2-amino-1,3-benzothiazol-4-yl)-6-{[(3S)-3-aminopyrrolidin-1-yl]sulfonyl}-2-(1H-tetrazol-5-yl)benzenesulfonamide]
IC50 (IMP-1; [7]): 1.47 nM
IC50 (NDM-1; [8]): 0.976 nM
IC50 (VIM-1; VIM-1 IC50, fluorescence assay): 1.44 nM
Escherichia coli expressing NDM-1 (CLB30016) MITC95 [1]: 3.125 µM
Klebsiella pneumoniae expressing VIM-1 (IHMA599644) MITC95 [2]: 3.125 µM
Serratia marcescens expressing IMP-1 (CL5741) MITC95 [3]: 3.125 µM
P. aeruginosa expressing IMP-1, efflux + (MB9798) MITC95 [4]: 1.563 µM
P. aeruginosa expressing IMP-1, efflux − (MB9799) MITC95 [5]: 1.563 µM
Efflux ratio [6]: 1.00

Nc1nc2c(-c3ccc(S(=O)(=O)N4CC[C@@H](N)C4)c(S(N)(=O)=O)c3-c3nnn[nH]3)cccc2s1 [Example 62, 3-(2-amino-1,3-benzothiazol-4-yl)-6-{[(3R)-3-aminopyrrolidin-1-yl]sulfonyl}-2-(1H-tetrazol-5-yl)benzenesulfonamide]
IC50 (IMP-1; [7]): 1.28 nM
IC50 (NDM-1; [8]): 0.843 nM
IC50 (VIM-1; VIM-1 IC50, fluorescence assay): 1.63 nM
Escherichia coli expressing NDM-1 (CLB30016) MITC95 [1]: 3.125 µM
Klebsiella pneumoniae expressing VIM-1 (IHMA599644) MITC95 [2]: 3.125 µM
Serratia marcescens expressing IMP-1 (CL5741) MITC95 [3]: 1.563 µM
P. aeruginosa expressing IMP-1, efflux + (MB9798) MITC95 [4]: 1.563 µM
P. aeruginosa expressing IMP-1, efflux − (MB9799) MITC95 [5]: 1.563 µM
Efflux ratio [6]: 1.00

Nc1nc2c(-c3ccc(S(=O)(=O)N[C@@H]4CCNC4)c(S(N)(=O)=O)c3-c3nnn[nH]3)cccc2s1 [Example 63, 4-(2-amino-1,3-benzothiazol-4-yl)-N1-[(3R)-pyrrolidin-3-yl]-3-(1H-tetrazol-5-yl)benzene-1,2-disulfonamide]
IC50 (IMP-1; [7]): 0.307 nM
IC50 (NDM-1; [8]): 0.0445 nM
IC50 (VIM-1; [9]): 0.257 nM
Escherichia coli expressing NDM-1 (CLB30016) MITC95 [1]: 1.563 µM
Klebsiella pneumoniae expressing VIM-1 (IHMA599644) MITC95 [2]: 1.563 µM
Serratia marcescens expressing IMP-1 (CL5741) MITC95 [3]: 1.563 µM
P. aeruginosa expressing IMP-1, efflux + (MB9798) MITC95 [4]: 0.7813 µM
P. aeruginosa expressing IMP-1, efflux − (MB9799) MITC95 [5]: 1.563 µM
Efflux ratio [6]: 0.50

CN(C1CCCNC1)S(=O)(=O)c1ccc(-c2cccc3sc(N)nc23)c(-c2nnn[nH]2)c1S(N)(=O)=O (stereo not drawn) [Example 64, 4-(2-amino-1,3-benzothiazol-4-yl)-N1-methyl-N1-piperidin-3-yl-3-(1H-tetrazol-5-yl)benzene-1,2-disulfonamide]
IC50 (IMP-1; [7]): 2.16 nM
IC50 (NDM-1; [8]): 1.49 nM
IC50 (VIM-1; VIM-1 IC50, fluorescence assay): 5.69 nM
Escherichia coli expressing NDM-1 (CLB30016) MITC95 [1]: 12.5 µM
Klebsiella pneumoniae expressing VIM-1 (IHMA599644) MITC95 [2]: 12.5 µM
Serratia marcescens expressing IMP-1 (CL5741) MITC95 [3]: 1.563 µM
P. aeruginosa expressing IMP-1, efflux + (MB9798) MITC95 [4]: 3.125 µM
P. aeruginosa expressing IMP-1, efflux − (MB9799) MITC95 [5]: 1.563 µM
Efflux ratio [6]: 2.00

CN([C@H]1CCNC1)S(=O)(=O)c1ccc(-c2cccc3sc(N)nc23)c(-c2nnn[nH]2)c1S(N)(=O)=O [Example 65, 4-(2-amino-1,3-benzothiazol-4-yl)-N1-methyl-N1-[(3S)-pyrrolidin-3-yl]-3-(1H-tetrazol-5-yl)benzene-1,2-disulfonamide]
IC50 (IMP-1; [7]): 0.703 nM
IC50 (NDM-1; [8]): 0.464 nM
IC50 (VIM-1; [9]): 1.43 nM
Escherichia coli expressing NDM-1 (CLB30016) MITC95 [1]: 6.25 µM
Klebsiella pneumoniae expressing VIM-1 (IHMA599644) MITC95 [2]: 3.125 µM
Serratia marcescens expressing IMP-1 (CL5741) MITC95 [3]: 3.125 µM
P. aeruginosa expressing IMP-1, efflux + (MB9798) MITC95 [4]: 3.125 µM
P. aeruginosa expressing IMP-1, efflux − (MB9799) MITC95 [5]: 1.563 µM
Efflux ratio [6]: 2.00

Nc1nc2c(-c3ccc(S(=O)(=O)N4CCC[C@H](N)C4)c(S(N)(=O)=O)c3-c3nnn[nH]3)cccc2s1 [Example 66, 3-(2-amino-1,3-benzothiazol-4-yl)-6-{[(3S)-3-aminopiperidin-1-yl]sulfonyl}-2-(1H-tetrazol-5-yl)benzenesulfonamide]
IC50 (IMP-1; [7]): 2.26 nM
IC50 (NDM-1; [8]): 1.09 nM
IC50 (VIM-1; [9]): 4.01 nM
Escherichia coli expressing NDM-1 (CLB30016) MITC95 [1]: 3.125 µM
Klebsiella pneumoniae expressing VIM-1 (IHMA599644) MITC95 [2]: 6.25 µM
Serratia marcescens expressing IMP-1 (CL5741) MITC95 [3]: 3.125 µM
P. aeruginosa expressing IMP-1, efflux + (MB9798) MITC95 [4]: 3.125 µM
P. aeruginosa expressing IMP-1, efflux − (MB9799) MITC95 [5]: 1.563 µM
Efflux ratio [6]: 2.00

Nc1nc2c(-c3ccc(S(=O)(=O)N[C@H]4CCCNC4)c(S(N)(=O)=O)c3-c3nnn[nH]3)cccc2s1 [Example 67, 4-(2-amino-1,3-benzothiazol-4-yl)-N1-[(3S)-piperidin-3-yl]-3-(1H-tetrazol-5-yl)benzene-1,2-disulfonamide]
IC50 (IMP-1; [7]): 0.488 nM
IC50 (NDM-1; [8]): 0.0407 nM
IC50 (VIM-1; VIM-1 IC50, fluorescence assay): 0.271 nM
Escherichia coli expressing NDM-1 (CLB30016) MITC95 [1]: 1.563 µM
Klebsiella pneumoniae expressing VIM-1 (IHMA599644) MITC95 [2]: 3.125 µM
Serratia marcescens expressing IMP-1 (CL5741) MITC95 [3]: 1.563 µM
P. aeruginosa expressing IMP-1, efflux + (MB9798) MITC95 [4]: 1.563 µM
P. aeruginosa expressing IMP-1, efflux − (MB9799) MITC95 [5]: 1.563 µM
Efflux ratio [6]: 1.00

Nc1nc2c(-c3ccc(S(=O)(=O)N4CCC[C@@H](N)C4)c(S(N)(=O)=O)c3-c3nnn[nH]3)cccc2s1 [Example 68, 3-(2-amino-1,3-benzothiazol-4-yl)-6-{[(3R)-3-aminopiperidin-1-yl]sulfonyl}-2-(1H-tetrazol-5-yl)benzenesulfonamide]
IC50 (IMP-1; IMP-1 IC50, fluorescence assay): 1.97 nM
IC50 (NDM-1; NDM-1 IC50, fluorescence assay): 1.01 nM
IC50 (VIM-1; [9]): 3.7 nM
Escherichia coli expressing NDM-1 (CLB30016) MITC95 [1]: 3.125 µM
Klebsiella pneumoniae expressing VIM-1 (IHMA599644) MITC95 [2]: 3.125 µM
Serratia marcescens expressing IMP-1 (CL5741) MITC95 [3]: 1.563 µM
P. aeruginosa expressing IMP-1, efflux + (MB9798) MITC95 [4]: 3.125 µM
P. aeruginosa expressing IMP-1, efflux − (MB9799) MITC95 [5]: 1.563 µM
Efflux ratio [6]: 2.00

Nc1nc2c(-c3ccc(S(=O)(=O)N[C@@H]4CCCNC4)c(S(N)(=O)=O)c3-c3nnn[nH]3)cccc2s1 [Example 69, 4-(2-amino-1,3-benzothiazol-4-yl)-N1-[(3R)-piperidin-3-yl]-3-(1H-tetrazol-5-yl)benzene-1,2-disulfonamide]
IC50 (IMP-1; [7]): 0.184 nM
IC50 (NDM-1; [8]): 0.0323 nM
IC50 (VIM-1; VIM-1 IC50, fluorescence assay): 0.185 nM
Escherichia coli expressing NDM-1 (CLB30016) MITC95 [1]: 0.7813 µM
Klebsiella pneumoniae expressing VIM-1 (IHMA599644) MITC95 [2]: 3.125 µM
Serratia marcescens expressing IMP-1 (CL5741) MITC95 [3]: 1.563 µM
P. aeruginosa expressing IMP-1, efflux + (MB9798) MITC95 [4]: 0.7813 µM
P. aeruginosa expressing IMP-1, efflux − (MB9799) MITC95 [5]: 1.563 µM
Efflux ratio [6]: 0.50

NC[C@@H]1CCN(S(=O)(=O)c2ccc(-c3cccc4sc(N)nc34)c(-c3nnn[nH]3)c2S(N)(=O)=O)C1 [Example 70, 3-(2-amino-1,3-benzothiazol-4-yl)-6-{[(3S)-3-(aminomethyl)pyrrolidin-1-yl]sulfonyl}-2-(1H-tetrazol-5-yl)benzenesulfonamide]
IC50 (IMP-1; [7]): 2.31 nM
IC50 (NDM-1; [8]): 1.95 nM
IC50 (VIM-1; VIM-1 IC50, fluorescence assay): 2.79 nM
Escherichia coli expressing NDM-1 (CLB30016) MITC95 [1]: 6.25 µM
Klebsiella pneumoniae expressing VIM-1 (IHMA599644) MITC95 [2]: 12.5 µM
Serratia marcescens expressing IMP-1 (CL5741) MITC95 [3]: 3.125 µM
P. aeruginosa expressing IMP-1, efflux + (MB9798) MITC95 [4]: 3.125 µM
P. aeruginosa expressing IMP-1, efflux − (MB9799) MITC95 [5]: 3.125 µM
Efflux ratio [6]: 1.00

Nc1nc2c(-c3ccc(S(=O)(=O)NC[C@H]4CCNC4)c(S(N)(=O)=O)c3-c3nnn[nH]3)cccc2s1 [Example 73, 4-(2-amino-1,3-benzothiazol-4-yl)-N^1-[(3S)-pyrrolidin-3-ylmethyl]-3-(1H-tetrazol-5-yl)benzene-1,2-disulfonamide]
IC50 (IMP-1; IMP-1 IC50, fluorescence assay): 0.16 nM
IC50 (NDM-1; [8]): 0.0332 nM
IC50 (VIM-1; VIM-1 IC50, fluorescence assay): 0.125 nM
Escherichia coli expressing NDM-1 (CLB30016) MITC95 [1]: 1.563 µM
Klebsiella pneumoniae expressing VIM-1 (IHMA599644) MITC95 [2]: 3.125 µM
Serratia marcescens expressing IMP-1 (CL5741) MITC95 [3]: 1.563 µM
P. aeruginosa expressing IMP-1, efflux + (MB9798) MITC95 [4]: 0.7813 µM
P. aeruginosa expressing IMP-1, efflux − (MB9799) MITC95 [5]: 1.563 µM
Efflux ratio [6]: 0.50

Source: patent US10221163B2 (priority 2015, dated 2019)
